The IC50 is the concentration that gives 50% inhibition. Read a high IC50 as weaker potency in that assay.

T1 sequence (P30291 299-569 limits assumed): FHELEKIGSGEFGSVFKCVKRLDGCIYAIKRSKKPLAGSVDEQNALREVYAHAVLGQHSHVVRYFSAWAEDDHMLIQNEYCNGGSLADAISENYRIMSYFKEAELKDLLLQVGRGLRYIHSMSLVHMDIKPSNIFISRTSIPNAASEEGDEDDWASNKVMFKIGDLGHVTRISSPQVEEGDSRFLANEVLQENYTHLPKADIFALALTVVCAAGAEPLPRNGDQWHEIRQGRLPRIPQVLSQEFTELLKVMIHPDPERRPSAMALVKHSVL

The first assay concerns the target T1, Wee1 kinase domain (Homo sapiens, UniProt P30291).
T1 construct: Wee1 kinase domain was purchased from Carna (catalog #05-177); purchased Carna 05-177
Kind of assay: Wee1 Kinase Biochemical Assay (ADP-Glo). The note with it: Wee1 kinase domain, 15 uM ATP, ADP-Glo. The procedure, abridged:
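ADP-Glo luminescence readout of ADP produced by 1 nM kinase domain phosphorylating Poly(Lys,Tyr 4:1) (2 ng/mL) at 15 uM ATP. Reaction ran 4 h, 25 °C, in Tris/MgCl2 buffer with BSA and DTT. Inhibition scaled between DMSO (high) and saturating control inhibitor (low).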
For `CN1CCC(n2cnc(Nc3ncc4c(n3)N(c3cccc(N=S(C)(C)=O)n3)[C@H]3CC(C)(C)OC[C@@]43C)c2)CC1` (single isomer, unassigned) [Example 206], the IC50 was 100 to 1000 nM. Still for that read-out and setting: the value for `C[C@H]1COC(=O)N1c1cccc(N2c3nc(Nc4ccc(C5(C)COC5)cc4)ncc3[C@]3(C)COC(C)(C)C[C@H]23)n1` (single isomer, unassigned) [Example 302] was 100 to 1000 nM; that for `C[C@H]1COC(=O)N1c1cccc(N2c3nc(Nc4ccc(OC5CNC5)nc4)ncc3[C@]3(C)COC(C)(C)C[C@H]23)n1` (single isomer, unassigned) [Example 342] was 100 to 1000 nM; that for `CNCc1cccc(N2c3nc(Nc4ccc(N5C(=O)CC[C@@H]5C)cc4)ncc3[C@@]3(C)COC(C)(C)C[C@@H]23)n1` (single isomer, unassigned) [Example 28] was less than 10 nM.

Take `CNCc1cccc(N2c3nc(Nc4ccc([C@H]5CCOC5)cc4)ncc3[C@]3(C)COC(C)(C)C[C@H]23)n1` (single isomer, unassigned) [Example 39]: the IC50 lay in the range of 100 to 1000 nM. Still for that read-out and setting: the value for `CNCc1cccc(N2c3nc(Nc4ccc(N5C(=O)CC[C@H]5C)cc4)ncc3[C@]3(C)COC(C)(C)C[C@H]23)n1` (single isomer, unassigned) [Example 29] was 10 to 100 nM. The compound `CN1CC2(C1)CN(c1ccc(Nc3ncc4c(n3)N(c3cccc(N=S(C)(C)=O)n3)[C@H]3CC(C)(C)OC[C@@]43C)cc1)C2` (single isomer, unassigned) [Example 220] returned a 50% inhibitory concentration (IC50) of 100 to 1000 nM. Still for that read-out and setting: as for `CC1(C)C[C@@H]2N(c3cccc(N=S(C)(C)=O)n3)c3nc(Nc4ccc([C@H]5CCNC5)cc4)ncc3[C@]2(C)CO1` (single isomer, unassigned) [Example 138], the figure is 10 to 100 nM; as for `CNCc1cccc(N2c3nc(Nc4ccc(N5CCC(F)(F)CC5)cc4)ncc3[C@]3(C)COC(C)(C)C[C@H]23)n1` (single isomer, unassigned) [Example 15], 10 to 100 nM. The same measure, in the same setting: as for `C[C@H]1COC(=O)N1c1cccc(N2c3nc(Nc4ccc(N5CCN(C)CC5=O)cc4)ncc3[C@]3(C)COC(C)(C)C[C@H]23)n1` (single isomer, unassigned) [Example 270], the figure is 10 to 100 nM. Consider `CNC(=O)c1ccc(Nc2ncc3c(n2)N(c2cccc(N=S(C)(C)=O)n2)C2CC(C)(C)OCC32C)cc1F` (single isomer, unassigned) [Example 118], for which the IC50 is not below 1000 nM. The same measure, in the same setting: as for `C[C@H]1COC(=O)N1c1cccc(N2c3nc(Nc4cnn(C5CCNCC5)c4)ncc3[C@]3(C)COC(C)(C)C[C@H]23)n1` (single isomer, unassigned) [Example 254], the figure is 10 to 100 nM; as for `CNCc1cccc(N2c3nc(Nc4ccc(N5CCCOCC5)cc4)ncc3[C@]3(C)COC(C)(C)C[C@H]23)n1` (single isomer, unassigned) [Example 17], 100 to 1000 nM; as for `CNCc1cccc(N2c3nc(Nc4ccc([C@@H]5CNC(=O)C5)cc4)ncc3[C@]3(C)COC(C)(C)C[C@H]23)n1` (single isomer, unassigned) [Example 64], 10 to 100 nM. The same measure, in the same setting: the value for `CNCc1cccc(N2c3nc(Nc4ccc([C@H]5CNC(=O)C5)cc4)ncc3[C@]3(C)COC(C)(C)C[C@H]23)n1` (single isomer, unassigned) [Example 62] was 10 to 100 nM; that for `CNCc1cccc(N2c3nc(Nc4ccc([C@H]5CCCO5)cc4)ncc3[C@]3(C)COC(C)(C)C[C@H]23)n1` (single isomer, unassigned) [Example 58] was not below 1000 nM. On the same count and under the same terms, as for `C[C@H]1COC(=O)N1c1cccc(N2c3nc(Nc4ccc(C(C)(C)C)nc4)ncc3[C@]3(C)COC(C)(C)C[C@H]23)n1` (single isomer, unassigned) [Example 300], the figure is 100 to 1000 nM.

Staying with this assay, now noted: class symbols; 1 nM Wee1 enzyme, 15 uM ATP, 4 hours at 25° C.
Compound `CC1(C)C[C@@H]2N(c3cccc(C(C)(C)O)n3)c3nc(Nc4ccc(O[C@H]5CCNC5)cc4)ncc3[C@]2(C)CO1` (single isomer, unassigned) [Example 420] registered an IC50 of 10 to 100 nM. The same measure, in the same setting: the value for `CC1(C)C[C@@H]2N(c3cccc(N4CCOC4=O)n3)c3nc(Nc4ccc([C@H]5CNC[C@H]5F)cc4)ncc3[C@]2(C)CO1` [Example 673, 3-(6-((4bS,8aS)-2-((4-((3S,4S)-4-fluoropyrrolidin-3-yl)phenyl)amino)-4b,7,7-trimethyl-4b,7,8,8a-tetrahydropyrano[3′,4′:4,5]pyrrolo[2,3-d]pyrimidin-9(5H)-yl)pyridin-2-yl)oxazolidin-2-one] was 10 to 100 nM; that for `CN1C[C@@H]2CN(c3ccc(Nc4ncc5c(n4)N(c4cccc(N6CCOC6=O)n4)[C@H]4CC(C)(C)OC[C@@]54C)cc3)C[C@@H]2C1` [Example 693, 3-(6-((4bS,8aS)-46,7,7-trimethyl-2-((4-((3aR,6aS)-5-methylhexahydropyrrolo[3,4-c]pyrrol-2(1H)-yl)phenyl)amino)-4b,7,8,8a-tetrahydropyrano[3′,4′:4,5]pyrrolo[2,3-d]pyrimidin-9(5H)-yl)pyridin-2-yl)oxazolidin-2-one] was 100 to 1000 nM; that for `CN1C[C@@H]2C[C@H]1CN2c1ccc(Nc2ncc3c(n2)N(c2cccc(N4C(=O)CCC4(C)C)n2)[C@@H]2CC(C)(C)OC[C@]32C)cc1` [Example 798, 5,5-dimethyl-1-(6-((4bR,8aR)-4b,7,7-trimethyl-2-((4-((1S,4S)-5-methyl-2,5-diazabicyclo[2.2.1]heptan-2-yl)phenyl)amino)-4b,7,8,8a-tetrahydropyrano[3′,4′:4,5]pyrrolo[2,3-d]pyrimidin-9(5H)-yl)pyridin-2-yl)pyrrolidin-2-one] was less than 10 nM. On the same count and under the same terms, the value for `CN1C[C@@H]2C[C@H]1CN2c1ccc(Nc2ncc3c(n2)N(c2cccc(C(C)(C)O)n2)[C@H]2CC(C)(C)OC[C@@]32C)cc1Cl` (single isomer, unassigned) [Example 436] was 10 to 100 nM; that for `CN[C@@H](C)c1cccc(N2c3nc(Nc4ccc(N5C[C@@H]6C[C@H]5CO6)cc4)ncc3[C@]3(C)COC(C)(C)C[C@H]23)n1` (single isomer, unassigned) [Example 580] was 100 to 1000 nM. On the same count and under the same terms, as for `CNCc1cccc(N2c3nc(NC(=O)C4CC4)ncc3[C@@]3(C)COC(C)(C)C[C@@H]23)n1` (single isomer, unassigned) [Example 762], the figure is 10 to 100 nM; as for `Cc1cc(Nc2ncc3c(n2)N(c2cccc([C@@H]4CCCN4)n2)[C@H]2CC(C)(C)OC[C@@]32C)ccc1N1CCOCC1` (single isomer, unassigned) [Example 530], 10 to 100 nM. Regarding `CN[C@@H](C)c1cccc(N2c3nc(Nc4ccc(N5C[C@H]6C[C@@H]5CO6)cc4)ncc3[C@]3(C)COC(C)(C)C[C@H]23)n1` (single isomer, unassigned) [Example 578], the IC50 lay within 100 to 1000 nM. On to `C[C@H]1COC(=O)N1c1cccc(N2c3nc(Nc4ccc([C@H]5CCN(C)C5)cc4)ncc3[C@@]3(C)COCC[C@@H]23)n1` [Example 793, (S)-4-methyl-3-(6-((4bR,8aR)-4b-methyl-2-((4-((R)-1-methylpyrrolidin-3-yl)phenyl)amino)-4b,7,8,8a-tetrahydropyrano[3′,4′:4,5]pyrrolo[2,3-d]pyrimidin-9(5H)-yl)pyridin-2-yl)oxazolidin-2-one], for which the IC50 was less than 10 nM.

Turning to `CC1(C)C[C@H]2N(c3cccc(N4CCOC4=O)n3)c3nc(Nc4ccc(N5CCNCC5)cc4)ncc3[C@@]2(C)CO1` (single isomer, unassigned) [Example 601], the IC50 is less than 10 nM.

The values above are taken from patent publication US20260166039A1 (SCHRÖDINGER, INC., priority 2022, published 2026).
